In US12630532B2, “Indole-substituted quinolines and their combination with Plk1 inhibitors for the treatment of cancer” (UNIVERSITY OF KENTUCKY RESEARCH FOUNDATION, priority 2021, dated 2026):

How the values were obtained:
[1] = test system: LS174T colon cancer cell xenografts; assay: In vivo antineoplastic activity and gross toxicity in LS174T xenografts
Method: Mouse studies were carried out with approval from the Institutional Animal Care and Use Committee of the University of Kentucky (2020-3531). All methods were performed in accordance with the relevant guidelines and regulations according to protocols. […] After tumors were established, mice were randomized according to tumor volume and divided into groups for treatments (five mice in each group, two tumors on each mouse).
The in vivo evaluation of ISQ-1 and BI2536 followed the approved protocol. After tumors were established, ISQ-1 was formulated in a mixture of Tween-80 (5%), DMSO (10%), PEG400 (25%) and PBS (60%) and was intraperitoneally administered to the ISQ-1 group at a daily dose of 20 mg/kg mouse body weight. The first day of treatment was set as day 0. At days 0, 4, and 7, BI2536 dissolved in 0.1 N HCl and then diluted 5-fold using 0.9% NaCl was given via gavage to the B12536 group. Mice in combination therapy group were treated with both ISQ-1 and BI2536 following aforementioned dosing schedules. At day 11 treatment was ceased and mice were sacrificed. Tumors and mouse weights were measured, and tumor volumes were calculated as Length×width^2/2.
Major biological assays were performed at least twice. Data were shown as mean SEM. For the mice study, five mice with two tumors on the lower flanks of each mouse were used in each treatment group. Sizes of the two tumors from each mouse were averaged, standardized by the tumor size on day 0, and log-transformed. ANOVA with Tukey's HSD test was used to compare the tumor size at the end of the study (day 11) between the combination therapy of ISQ-1 and B12536 and each single compound as well as the control. The equal variance assumption of ANOVA was assessed by Bartlett's test. All statistical studies were overseen in collaboration with a statistician in the University of Kentucky's Markey Cancer Center.

TOPFlash Wnt reporter = TOPFlash Wnt reporter assay in stable HEK293T cells; type: cell-based; settings: 24 hours treatment
Method: Wnt reporter assay was described previously (25). We subcloned Super 8×TOPFlash (provided by Professor Randall Moon, University of Washington) into the pGL4.83 [hRlucP/Puro] Vector and transfected it into HEK293T cells. A stable HEK293T cell line containing the TOPFlash reporter was established using puromycin selection (25). To assess if compounds of interest blocked the downstream signaling transduction pathway of β-catenin, the stable reporter cells were seeded to a 12-well plate and treated with 25 mM LiCl to stabilize β-catenin for 16 hours to activate Wnt signaling and then candidate compounds at predetermined concentrations for another 24 hours. The cells were lysed and centrifuged to obtain supernatants which were analyzed by FB 12 Single Tube Luminometer by Titertek-Berthold (Berthold Detection Systems GmbH, Elsässerstr, Germany).

CN(C)c1ccc2cc(-c3cn(C)c4ccccc34)c(N)nc2c1 [ISQ-1, N^7,N^7-Dimethyl-3-(1-methyl-1H-indol-3-yl)quinoline-2,7-diamine]
tumor growth of LS174T xenografts ([1]; nude mice, ISQ-1 20 mg/kg daily i.p., BI2536 30 mg/kg twice a week by gavage, day 11): inhibited tumor growth but did not induce tumor regression
gross toxicities on the basis of mouse weight measurements ([1]; same dosing as efficacy study): No gross toxicities
TOPFlash Wnt reporter luciferase luminescence (TOPFlash Wnt reporter): inhibited TOPFlash Wnt reporter
